According to patent US20250382344A1, “Soluble GLP1/GIP/NPY2 Receptor Triple Agonists” (Boehringer Ingelheim International GmH, priority 2024, published 2025):
Read-outs that look alike come from different tables or passages of the source. Blank lines part the entries; values can stand above or below the molecule they belong to. *1 amine or outer side, *2 acyl side, *3 side chain or, on linkers, in order; H or OH if unused. Where a SMILES comes first, the peptide text is derived from it. Side-chain parts run from the residue outwards. [ ]: non-standard residue; d: D form. The star is where a group is joined. C18 diacid = O=C(O)CCCCCCCCCCCCCCCCC(=O)*; γGlu = O=C(O)[C@H](CCC(=O)[*:2])N[*:1]; εLys = N[C@@H](CCCCN[*:1])C(=O)[*:2]; Aib = CC(C)(N)C(=O)O

Legend:
hGLP1R = biological target: T1, hGLP1R (Homo sapiens, UniProt P43220); test: hGLP1R CreLuc assay in 0.5% and 100% plasma (HEK-293 CRE-luciferase reporter cells); format: cell-based; details: HEK-293 reporter cells
T1 construct: expressed in transfected cells; host or cells: HEK-293 CRE-luciferase reporter cells
T1 sequence (P43220 24-463): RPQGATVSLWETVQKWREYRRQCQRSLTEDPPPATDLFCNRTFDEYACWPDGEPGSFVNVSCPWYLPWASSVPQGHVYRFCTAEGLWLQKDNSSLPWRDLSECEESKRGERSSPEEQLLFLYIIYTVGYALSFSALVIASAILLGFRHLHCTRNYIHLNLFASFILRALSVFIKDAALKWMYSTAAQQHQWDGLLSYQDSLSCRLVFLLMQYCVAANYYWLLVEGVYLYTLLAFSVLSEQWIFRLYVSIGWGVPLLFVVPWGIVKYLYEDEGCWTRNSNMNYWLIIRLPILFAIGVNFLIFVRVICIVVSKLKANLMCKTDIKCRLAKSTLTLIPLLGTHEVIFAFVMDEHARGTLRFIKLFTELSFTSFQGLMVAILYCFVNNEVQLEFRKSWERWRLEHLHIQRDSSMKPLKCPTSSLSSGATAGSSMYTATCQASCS

[1] = Solubility in 0.1 M phosphate buffer at pH 7; format: physicochemical; details: 0.1 M phosphate buffer at pH 7, 10 mg/mL final peptide concentration, shaking 2 hours at room temperature, peptides as TFA-salts, measured sample pH 6.5-7.0
hGIPR = biological target: T2, hGIPR (Homo sapiens, UniProt P48546); test: hGIPR CreLuc assay in 0.5% and 100% plasma (CHO CRE-luciferase reporter cells); format: cell-based
T2 construct: expressed in transfected cells; host or cells: CHO CRE-luciferase reporter cells
T2 sequence (P48546 22-466): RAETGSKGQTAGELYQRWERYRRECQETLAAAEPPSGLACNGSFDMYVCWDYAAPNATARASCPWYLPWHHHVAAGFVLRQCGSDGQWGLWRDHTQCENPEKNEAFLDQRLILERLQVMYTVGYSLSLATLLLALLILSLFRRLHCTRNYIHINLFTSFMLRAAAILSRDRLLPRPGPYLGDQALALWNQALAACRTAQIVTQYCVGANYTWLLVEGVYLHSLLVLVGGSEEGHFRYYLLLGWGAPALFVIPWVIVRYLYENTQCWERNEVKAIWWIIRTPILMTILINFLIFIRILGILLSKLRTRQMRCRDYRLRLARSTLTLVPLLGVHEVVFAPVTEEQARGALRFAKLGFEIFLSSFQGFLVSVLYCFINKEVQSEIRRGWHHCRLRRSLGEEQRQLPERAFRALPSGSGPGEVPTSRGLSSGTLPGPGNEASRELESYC

[2] = 0.5% human plasma, read-out: hGLP1R 0.5% hP
[3] = 100% human plasma, read-out: hGLP1R 100% hP
[4] = 0.5% human plasma, read-out: hGIPR 0.5% hP
[5] = 100% human plasma, read-out: hGIPR 100% hP

EC50 (hGLP1R; [2]): 0.7 nM | EC50 (hGLP1R; [3]): 7.1 nM | solubility ([1]; read-out: Solubility): 4400 µg/mL | EC50 (hGIPR; [4]): 0.4 nM | EC50 (hGIPR; [5]): 19.3 nM
Compound: CC[C@H](C)[C@H](NC(=O)[C@H](CC(C)C)NC(=O)[C@H](Cc1c[nH]cn1)NC(=O)[C@H](CCCNC(=N)N)NC(=O)[C@@H](NC(=O)[C@H](Cc1ccccc1)NC(=O)[C@H](CCC(=O)O)NC(=O)C(C)(C)NC(=O)[C@H](CCC(N)=O)NC(=O)[C@H](C)NC(=O)[C@H](CCC(N)=O)NC(=O)[C@H](CCCCN)NC(=O)[C@H](CCC(=O)O)NC(=O)[C@H](CC(C)C)NC(=O)C(C)(C)NC(=O)[C@@H](NC(=O)[C@H](CO)NC(=O)[C@H](Cc1ccc(O)cc1)NC(=O)[C@H](CC(=O)O)NC(=O)[C@H](CO)NC(=O)[C@@H](NC(=O)[C@H](Cc1ccccc1)NC(=O)[C@@H](NC(=O)CNC(=O)[C@H](CCC(=O)O)NC(=O)C(C)(C)NC(=O)[C@@H](N)Cc1ccc(O)cc1)[C@@H](C)O)[C@@H](C)O)[C@@H](C)CC)C(C)C)C(=O)N[C@@H](CC(N)=O)C(=O)N[C@@H](CCCCNC(=O)CC[C@H](NC(=O)CC[C@H](NC(=O)CC[C@H](NC(=O)CC[C@H](NC(=O)CC[C@H](NC(=O)CC[C@H](NC(=O)CCCCCCCCCCCCCCCCC(=O)O)C(=O)O)C(=O)O)C(=O)O)C(=O)O)C(=O)O)C(=O)O)C(=O)NC(C)(C)C(=O)N[C@H](C(=O)N[C@@H](CCCNC(=N)N)C(=O)N[C@@H](CCC(N)=O)C(=O)N[C@@H](CCCNC(=N)N)C(=O)N[C@@H](Cc1ccc(O)cc1)C(N)=O)[C@@H](C)O [Compound 56, Y-Aib-E-G-T-F-T-S-D-Y-S-I-Aib-L-E-K-Q-A-Q-Aib-E-F-V-R-H-L-I-N-K(1,3)-Aib-T-R-Q-R-Y-NH2.C18DA-gGlu-gGlu-gGlu-gGlu-gGlu-gGlu(1,2)]

EC50 (hGLP1R; [2]): 0.6 nM | solubility at 2 h [1]: 4800 µg/mL | EC50 (hGIPR; [4]): 0.2 nM
Compound: CC[C@H](C)[C@H](NC(=O)[C@H](CC(C)C)NC(=O)[C@H](Cc1c[nH]cn1)NC(=O)[C@H](CCCNC(=N)N)NC(=O)[C@@H](NC(=O)[C@H](Cc1ccccc1)NC(=O)[C@H](C)NC(=O)C(C)(C)NC(=O)[C@H](CCC(N)=O)NC(=O)[C@H](C)NC(=O)[C@H](CCC(N)=O)NC(=O)[C@H](CCCCN)NC(=O)[C@H](CCC(=O)O)NC(=O)[C@H](CC(C)C)NC(=O)C(C)(C)NC(=O)[C@@H](NC(=O)[C@H](CO)NC(=O)[C@H](Cc1ccc(O)cc1)NC(=O)[C@H](CC(=O)O)NC(=O)[C@H](CO)NC(=O)[C@@H](NC(=O)[C@H](Cc1ccccc1)NC(=O)[C@@H](NC(=O)CNC(=O)[C@H](CCC(=O)O)NC(=O)C(C)(C)NC(=O)[C@@H](N)Cc1ccc(O)cc1)[C@@H](C)O)[C@@H](C)O)[C@@H](C)CC)C(C)C)C(=O)N[C@@H](C)C(=O)N[C@@H](CCCCNC(=O)[C@@H](N)CCCCNC(=O)CC[C@H](NC(=O)CC[C@H](NC(=O)CC[C@H](NC(=O)CC[C@H](NC(=O)CC[C@H](NC(=O)CC[C@H](NC(=O)CCCCCCCCCCCCCCCCC(=O)O)C(=O)O)C(=O)O)C(=O)O)C(=O)O)C(=O)O)C(=O)O)C(=O)NC(C)(C)C(=O)N[C@H](C(=O)N[C@@H](CCCNC(=N)N)C(=O)N[C@@H](CCC(N)=O)C(=O)N[C@@H](CCCNC(=N)N)C(=O)N[C@@H](Cc1ccc(O)cc1)C(N)=O)[C@@H](C)O [Compound 68, Y-Aib-E-G-T-F-T-S-D-Y-S-I-Aib-L-E-K-Q-A-Q-Aib-A-F-V-R-H-L-I-A-K(1,3)-Aib-T-R-Q-R-Y-NH2.C18DA-gGlu-gGlu-gGlu-gGlu-gGlu-gGlu-eLys(1,2)] (H-Y[Aib]EGTFTSDYSI[Aib]LEKQAQ[Aib]AFVRHLIAK([εLys-γGlu-γGlu-γGlu-γGlu-γGlu-γGlu-C18 diacid])[Aib]TRQRY-NH2; N-terminus assumed)

Further lines, the molecule ahead of its results:

Compound: CC[C@H](C)[C@H](NC(=O)[C@H](CC(C)C)NC(=O)[C@H](Cc1c[nH]cn1)NC(=O)[C@H](CCCNC(=N)N)NC(=O)[C@@H](NC(=O)[C@H](Cc1ccccc1)NC(=O)[C@H](C)NC(=O)C(C)(C)NC(=O)[C@H](CCC(N)=O)NC(=O)[C@H](C)NC(=O)[C@H](CCC(N)=O)NC(=O)[C@H](CCCCN)NC(=O)[C@H](CC(=O)O)NC(=O)[C@H](CC(C)C)NC(=O)[C@](C)(CC(C)C)NC(=O)[C@@H](NC(=O)[C@H](CO)NC(=O)[C@H](Cc1ccc(O)cc1)NC(=O)[C@H](CC(=O)O)NC(=O)[C@H](CO)NC(=O)[C@@H](NC(=O)[C@H](Cc1ccccc1)NC(=O)[C@@H](NC(=O)CNC(=O)[C@H](CCC(=O)O)NC(=O)C(C)(C)NC(=O)[C@@H](N)Cc1ccc(O)cc1)[C@@H](C)O)[C@@H](C)O)[C@@H](C)CC)C(C)C)C(=O)N[C@@H](CC(N)=O)C(=O)N[C@@H](CCCCNC(=O)[C@@H](N)CCCCNC(=O)CC[C@H](NC(=O)CC[C@H](NC(=O)CC[C@H](NC(=O)CC[C@H](NC(=O)CC[C@H](NC(=O)CC[C@H](NC(=O)CCCCCCCCCCCCCCCCC(=O)O)C(=O)O)C(=O)O)C(=O)O)C(=O)O)C(=O)O)C(=O)O)C(=O)NC(C)(C)C(=O)N[C@H](C(=O)N[C@@H](CCCNC(=N)N)C(=O)N[C@@H](CCC(N)=O)C(=O)N[C@@H](CCCNC(=N)N)C(=O)N[C@@H](Cc1ccc(O)cc1)C(N)=O)[C@@H](C)O [Compound 67, Y-Aib-E-G-T-F-T-S-D-Y-S-I-aMeL-L-D-K-Q-A-Q-Aib-A-F-V-R-H-L-I-N-K(1,3)-Aib-T-R-Q-R-Y-NH2.C18DA-gGlu-gGlu-gGlu-gGlu-gGlu-gGlu-eLys(1,2)]
EC50 (hGLP1R; [2]): 0.1 nM | EC50 (hGLP1R; [3]): 0.6 nM | solubility at 2 h [1]: 8800 µg/mL | EC50 (hGIPR; [4]): 0.1 nM | EC50 (hGIPR; [5]): 1.7 nM

Compound: CC[C@H](C)[C@H](NC(=O)[C@H](CC(C)C)NC(=O)[C@H](Cc1c[nH]cn1)NC(=O)[C@H](CCCNC(=N)N)NC(=O)[C@@H](NC(=O)[C@H](Cc1ccccc1)NC(=O)[C@H](C)NC(=O)C(C)(C)NC(=O)[C@H](CCC(N)=O)NC(=O)[C@H](C)NC(=O)[C@H](CCC(N)=O)NC(=O)[C@H](CCC(=O)O)NC(=O)[C@H](CCC(=O)O)NC(=O)[C@H](CC(C)C)NC(=O)[C@](C)(CC(C)C)NC(=O)[C@@H](NC(=O)[C@H](CO)NC(=O)[C@H](Cc1ccc(O)cc1)NC(=O)[C@H](CC(=O)O)NC(=O)[C@H](CO)NC(=O)[C@@H](NC(=O)[C@H](Cc1ccccc1)NC(=O)[C@@H](NC(=O)CNC(=O)[C@H](CCC(=O)O)NC(=O)C(C)(C)NC(=O)[C@@H](N)Cc1ccc(O)cc1)[C@@H](C)O)[C@@H](C)O)[C@@H](C)CC)C(C)C)C(=O)N[C@@H](CC(N)=O)C(=O)N[C@@H](CCCCNC(=O)[C@@H](N)CCCCNC(=O)CC[C@H](NC(=O)CC[C@H](NC(=O)CC[C@H](NC(=O)CC[C@H](NC(=O)CC[C@H](NC(=O)CC[C@H](NC(=O)CCCCCCCCCCCCCCCCCCC(=O)O)C(=O)O)C(=O)O)C(=O)O)C(=O)O)C(=O)O)C(=O)O)C(=O)NC(C)(C)C(=O)N[C@H](C(=O)N[C@@H](CCCNC(=N)N)C(=O)N[C@@H](CCC(N)=O)C(=O)N[C@@H](CCCNC(=N)N)C(=O)N[C@@H](Cc1ccc(O)cc1)C(N)=O)[C@@H](C)O [Compound 89, Y-Aib-E-G-T-F-T-S-D-Y-S-I-aMeL-L-E-E-Q-A-Q-Aib-A-F-V-R-H-L-I-N-K(1,3)-Aib-T-R-Q-R-Y-NH2.C20DA-gGlu-gGlu-gGlu-gGlu-gGlu-gGlu-eLys(1,2)]
EC50 (hGLP1R; [2]): 0.2 nM | EC50 (hGLP1R; [3]): 1.7 nM | solubility at 2 h [1]: 8800 µg/mL | EC50 (hGIPR; [4]): 0.1 nM | EC50 (hGIPR; [5]): 0.9 nM

Compound: CC[C@H](C)[C@H](NC(=O)[C@H](CC(C)C)NC(=O)[C@H](Cc1c[nH]cn1)NC(=O)[C@H](CCCNC(=N)N)NC(=O)[C@@H](NC(=O)[C@H](Cc1ccccc1)NC(=O)[C@H](CCC(=O)O)NC(=O)C(C)(C)NC(=O)[C@H](CCC(N)=O)NC(=O)[C@H](C)NC(=O)[C@H](CCC(N)=O)NC(=O)[C@H](CCCCN)NC(=O)[C@H](CCC(=O)O)NC(=O)[C@H](CC(C)C)NC(=O)C(C)(C)NC(=O)[C@@H](NC(=O)[C@H](CO)NC(=O)[C@H](Cc1ccc(O)cc1)NC(=O)[C@H](CC(=O)O)NC(=O)[C@H](CO)NC(=O)[C@@H](NC(=O)[C@H](Cc1ccccc1)NC(=O)[C@@H](NC(=O)CNC(=O)[C@H](CCC(=O)O)NC(=O)C(C)(C)NC(=O)[C@@H](N)Cc1ccc(O)cc1)[C@@H](C)O)[C@@H](C)O)[C@@H](C)CC)C(C)C)C(=O)N[C@@H](CC(N)=O)C(=O)N[C@@H](CCCCNC(=O)COCCOCCNC(=O)COCCOCCNC(=O)CC[C@H](NC(=O)CC[C@H](NC(=O)CC[C@H](NC(=O)CC[C@H](NC(=O)CC[C@H](NC(=O)CCCCCCCCCCCCCCCCC(=O)O)C(=O)O)C(=O)O)C(=O)O)C(=O)O)C(=O)O)C(=O)NC(C)(C)C(=O)N[C@H](C(=O)N[C@@H](CCCNC(=N)N)C(=O)N[C@@H](CCC(N)=O)C(=O)N[C@@H](CCCNC(=N)N)C(=O)N[C@@H](Cc1ccc(O)cc1)C(N)=O)[C@@H](C)O [Compound 98, Y-Aib-E-G-T-F-T-S-D-Y-S-I-Aib-L-E-K-Q-A-Q-Aib-E-F-V-R-H-L-I-N-K(1,3)-Aib-T-R-Q-R-Y-NH2.C18DA-gGlu-gGlu-gGlu-gGlu-gGlu-OEG-OEG(1,2)]
EC50 (hGLP1R; [2]): 0.7 nM | solubility at 2 h [1]: 4900 µg/mL | EC50 (hGIPR; [4]): 0.5 nM
